This passage reports IC50 results from patent US12509444B2, “Compounds and methods for CD73 modulation and indications therefor” (Plexxikon Inc., priority 2019, dated 2025).

Experiment [1] addresses T1, Human CD73 (amino acid residues 27-549) (Homo sapiens, UniProt P21589).
T1 construct: Human CD73 (amino acid residues 27-549); His tag (N); made in house; host or cells: E. coli
T1 sequence (P21589 27-549): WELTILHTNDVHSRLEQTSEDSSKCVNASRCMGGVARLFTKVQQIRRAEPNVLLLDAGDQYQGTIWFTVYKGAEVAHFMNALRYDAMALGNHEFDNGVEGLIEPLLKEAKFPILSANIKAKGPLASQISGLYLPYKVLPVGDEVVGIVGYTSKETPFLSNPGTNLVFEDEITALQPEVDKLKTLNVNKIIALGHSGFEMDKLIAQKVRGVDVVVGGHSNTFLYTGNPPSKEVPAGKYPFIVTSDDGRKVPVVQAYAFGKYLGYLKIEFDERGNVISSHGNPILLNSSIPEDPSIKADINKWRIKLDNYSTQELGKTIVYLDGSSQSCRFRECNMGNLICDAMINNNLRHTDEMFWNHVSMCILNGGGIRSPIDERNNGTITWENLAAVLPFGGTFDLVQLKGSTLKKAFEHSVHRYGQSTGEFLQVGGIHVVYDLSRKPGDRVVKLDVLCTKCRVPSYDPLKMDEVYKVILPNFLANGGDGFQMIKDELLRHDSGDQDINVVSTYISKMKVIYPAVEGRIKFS
Put plainly: CD73 enzymatic assay (luciferase-based indirect assay, CellTiter-Glo). Format: biochemical. Conditions: 0.4 nM CD73, 150 μM AMP, 1 hour at room temperature. Put shortly:
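Residual AMP inhibits luciferase, so luminescence reports CD73 turnover; read with CellTiter-Glo 2.0 plus 1 μM final ATP, 30 min. Reaction used 0.4 nM N-His CD73 (27-549, E. coli), 150 μM AMP, HEPES pH 7.4 with Tween 20, 1 h at room temperature. IC50 fitted by nonlinear regression.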
For orientation: Cellular ATP, detected with luciferase, serves as a proxy for viable cell number.

In another experiment the target is T2, human CD73 (Homo sapiens, UniProt P21589).
T2 construct: expressed in transfected cells
T2 sequence (P21589 27-549): T1 sequence (P21589 27-549)
Put plainly: Inhibitor activity against CD73 in cell based assay (CD73 expressing CHO-K1 cells). Conditions: CHO-K1 cells expressing human CD73, 150 μM AMP, 4 hours of incubation; read-out: CHO-K1 CELL VARIANT: CD73 IC50. Put shortly:
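Residual supernatant AMP was quantified via CellTiter-Glo luminescence (1 μM ATP added, 30 min, room temperature) after a 4 h exposure of human CD73-expressing CHO-K1 cells to 150 μM AMP plus compound, top final 10 μM, 8 points. IC50 came from nonlinear regression of percent inhibition.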

The IC50 is the concentration at which inhibition is half-maximal. As to `CS(=O)(=O)N1CC[C@H](NC(=O)O[C@@H]2CCN(c3cn[nH]c(=O)c3Cl)C2)C1` [P-0341, (R)-1-(5-chloro-6-oxo-1,6-dihydropyridazin-4-yl)pyrrolidin-3-yl ((S)-1-(methylsulfonyl)pyrrolidin-3-yl)carbamate], the IC50 was in the range of 0.001 to 10 µM in experiment [1] and 10 to 100 µM on human CD73.

As for `O=C(N[C@H]1CCN(C(=O)c2ccccc2)C1)O[C@@H]1CCN(c2cn[nH]c(=O)c2Cl)C1` [P-0342, (R)-1-(5-chloro-6-oxo-1,6-dihydropyridazin-4-yl)pyrrolidin-3-yl ((S)-1-benzoylpyrrolidin-3-yl)carbamate], the values for the IC50 (in experiment [1]; at human CD73) were 0.001 to 10 µM and 10 to 100 µM, respectively.

For `O=C(N[C@H]1CCN(C(=O)NC2CCCCC2)C1)O[C@@H]1CCN(c2cn[nH]c(=O)c2Cl)C1` [P-0343, (R)-1-(5-chloro-6-oxo-1,6-dihydropyridazin-4-yl)pyrrolidin-3-yl ((S)-1-(cyclohexylcarbamoyl)pyrrolidin-3-yl)carbamate], the IC50 in experiment [1] is 0.001 to 10 µM; at human CD73 it was 10 to 100 µM.

Consider `Cc1ccc(C(=O)N[C@H]2CC[C@H](NC(=O)O[C@@H]3CCN(c4cn[nH]c(=O)c4Cl)C3)CC2)cc1` [P-0344, (R)-1-(5-chloro-6-oxo-1,6-dihydropyridazin-4-yl)pyrrolidin-3-yl ((1r,4R)-4-(4-methylbenzamido)cyclohexyl) carbamate], for which the half-inhibitory concentration (IC50) (in experiment [1]; at human CD73) was 0.001 to 10 µM each time.

As for `O=C(Nc1ccc(C(F)(F)F)cc1)N[C@H]1CC[C@H](NC(=O)O[C@@H]2CCN(c3cn[nH]c(=O)c3Cl)C2)CC1` [P-0345, (R)-1-(5-chloro-6-oxo-1,6-dihydropyridazin-4-yl)pyrrolidin-3-yl ((1r,4R)-4-(3-(4-(trifluoromethyl)phenyl)ureido)cyclohexyl)carbamate], the IC50 (in experiment [1]; on human CD73) was 0.001 to 10 µM each time.

`O=C(Nc1cccc(C(=O)O)c1)N[C@H]1CC[C@H](NC(=O)O[C@@H]2CCN(c3cn[nH]c(=O)c3Cl)C2)CC1` [P-0346, 3-(3-((1R,4r)-4-(((((R)-1-(5-chloro-6-oxo-1,6-dihydropyridazin-4-yl)pyrrolidin-3-yl)oxy)carbonyl)amino)cyclohexyl)ureido)benzoic acid]: the IC50 (in experiment [1]; at human CD73) was 0.001 to 10 µM throughout.

As for `O=C(Nc1ccc(C(=O)O)cc1)N[C@H]1CC[C@H](NC(=O)O[C@@H]2CCN(c3cn[nH]c(=O)c3Cl)C2)CC1` [P-0347, 4-(3-((1R,4r)-4-(((((R)-1-(5-chloro-6-oxo-1,6-dihydropyridazin-4-yl)pyrrolidin-3-yl)oxy)carbonyl)amino)cyclohexyl)ureido)benzoic acid], the IC50 (in experiment [1]; on human CD73) was 0.001 to 10 µM in each case.

For the molecule `COc1c(N2CC[C@@H](OC(=O)NC3CCC(F)(F)CC3)C2)cn[nH]c1=O` [P-0348, (R)-1-(5-methoxy-6-oxo-1,6-dihydropyridazin-4-yl)pyrrolidin-3-yl (4,4-difluorocyclohexyl)carbamate], the IC50 is 0.001 to 10 µM in experiment [1] and 10 to 100 µM on human CD73.

Take `O=C(NC12CCC(CC1)C2)O[C@@H]1CCN(c2cn[nH]c(=O)c2Cl)C1` [P-0349, (R)-1-(5-chloro-6-oxo-1,6-dihydropyridazin-4-yl)pyrrolidin-3-yl bicyclo[2.2.1]heptan-1-ylcarbamate]: the IC50 (in experiment [1]; on human CD73) was 0.001 to 10 µM in each case.

Turning to `CC1(C)CCCC1NC(=O)O[C@@H]1CCN(c2cn[nH]c(=O)c2Cl)C1` (stereo partly drawn) [P-0350, (R)-1-(5-chloro-6-oxo-1,6-dihydropyridazin-4-yl)pyrrolidin-3-yl (2,2-dimethylcyclopentyl)carbamate], the IC50 (in experiment [1]; at human CD73) was 0.001 to 10 µM each time.

Regarding `CC1(C)CC(NC(=O)O[C@@H]2CCN(c3cn[nH]c(=O)c3Cl)C2)C1` [P-0351, (R)-1-(5-chloro-6-oxo-1,6-dihydropyridazin-4-yl)pyrrolidin-3-yl (3,3-dimethylcyclobutyl)carbamate], the IC50 (in experiment [1]; at human CD73) was 0.001 to 10 µM throughout.

For the molecule `O=C(N[C@H]1CC[C@@H](Nc2ncccn2)CC1)O[C@@H]1CCN(c2cn[nH]c(=O)c2Cl)C1` [P-0352, (R)-1-(5-chloro-6-oxo-1,6-dihydropyridazin-4-yl)pyrrolidin-3-yl ((1s,4s)-4-(pyrimidin-2-ylamino)cyclohexyl)carbamate], the IC50 (in experiment [1]; on human CD73) was 0.001 to 10 µM each time.

`CC(=O)N1CC[C@@H](NC(=O)O[C@@H]2CCN(c3cn[nH]c(=O)c3Cl)C2)C1` [P-0353, (R)-1-(5-chloro-6-oxo-1,6-dihydropyridazin-4-yl)pyrrolidin-3-yl ((R)-1-acetylpyrrolidin-3-yl)carbamate]: the IC50 (in experiment [1]; on human CD73) was 0.001 to 10 µM throughout.

Turning to `O=C(N[C@@H]1CCN(C(=O)NC2CCCCC2)C1)O[C@@H]1CCN(c2cn[nH]c(=O)c2Cl)C1` [P-0354, (R)-1-(5-chloro-6-oxo-1,6-dihydropyridazin-4-yl)pyrrolidin-3-yl ((R)-1-(cyclohexylcarbamoyl)pyrrolidin-3-yl)carbamate], the IC50 (in experiment [1]; on human CD73) was 0.001 to 10 µM in each case.

For the molecule `CS(=O)(=O)N1CC[C@@H](NC(=O)O[C@@H]2CCN(c3cn[nH]c(=O)c3Cl)C2)C1` [P-0355, (R)-1-(5-chloro-6-oxo-1,6-dihydropyridazin-4-yl)pyrrolidin-3-yl ((R)-1-(methylsulfonyl)pyrrolidin-3-yl)carbamate], the IC50 (in experiment [1]; on human CD73) was 0.001 to 10 µM in each case.

Regarding `CC(C)(O)[C@H]1CC[C@H](NC(=O)O[C@@H]2CCN(c3cn[nH]c(=O)c3Cl)C2)CC1` [P-0356, (R)-1-(5-chloro-6-oxo-1,6-dihydropyridazin-4-yl)pyrrolidin-3-yl ((1r,4R)-4-(2-hydroxypropan-2-yl)cyclohexyl)carbamate], the IC50 (in experiment [1]; at human CD73) was 0.001 to 10 µM in each case.

In the case of `CC1(NC(=O)c2ccccc2)CCC(NC(=O)O[C@@H]2CCN(c3cn[nH]c(=O)c3Cl)C2)CC1` (stereo partly drawn) [P-0357, (R)-1-(5-chloro-6-oxo-1,6-dihydropyridazin-4-yl)pyrrolidin-3-yl (4-benzamido-4-methylcyclohexyl)carbamate], the IC50 (in experiment [1]; on human CD73) was 0.001 to 10 µM in each case.

In the case of `CC1(NS(C)(=O)=O)CCC(NC(=O)O[C@@H]2CCN(c3cn[nH]c(=O)c3Cl)C2)CC1` (stereo partly drawn) [P-0358, (R)-1-(5-chloro-6-oxo-1,6-dihydropyridazin-4-yl)pyrrolidin-3-yl (4-methyl-4-(methylsulfonamido)cyclohexyl)carbamate], the concentration for half-maximal inhibition (IC50) (in experiment [1]; at human CD73) was 0.001 to 10 µM in each case.

Regarding `O=C(N[C@@H]1CCN(C(=O)c2ccccc2)C1)O[C@@H]1CCN(c2cn[nH]c(=O)c2Cl)C1` [P-0359, (R)-1-(5-chloro-6-oxo-1,6-dihydropyridazin-4-yl)pyrrolidin-3-yl ((R)-1-benzoylpyrrolidin-3-yl)carbamate], the IC50 (in experiment [1]; at human CD73) was 0.001 to 10 µM in each case.

Turning to `O=C(NC1(C(F)(F)F)CCCC1)O[C@@H]1CCN(c2cn[nH]c(=O)c2Cl)C1` [P-0360, (R)-1-(5-chloro-6-oxo-1,6-dihydropyridazin-4-yl)pyrrolidin-3-yl (1-(trifluoromethyl)cyclopentyl) carbamate], the IC50 (in experiment [1]; at human CD73) was 0.001 to 10 µM in each case.

In the case of `N#CC1(NC(=O)O[C@@H]2CCN(c3cn[nH]c(=O)c3Cl)C2)CCCC1` [P-0361, (R)-1-(5-chloro-6-oxo-1,6-dihydropyridazin-4-yl)pyrrolidin-3-yl (1-cyanocyclopentyl)carbamate], the 50% inhibitory concentration (IC50) (in experiment [1]; at human CD73) was 0.001 to 10 µM each time.
